According to patent publication US11241422B2, “Methods for treatment of Fabry disease” (Amicus Therapeutics, Inc., priority 2006, dated 2022):
Positions count from the first letter of the chain named. “And” between values parts separate entries of the source, which are not always exact repeats. Equal entries are not always repeated.

Key:
mutant α-GAL [1] = target: T1, mutant α-GAL (Homo sapiens, UniProt P06280, T41I); experiment: T cell-based α-GAL enhancement assay, T cells from Fabry patients cultured with DGJ; parameters: key to Enhancement Group / Enhancement ratio: E: enhanceable;; I: enhanceable (intermediate);; NE: not enhanceable;; settings: Fabry patient T cells, mutation T41I
T1 construct: endogenous in cells; host or cells: T cell cultures established from blood of Fabry patients
T1 sequence (P06280 32-429 T41I): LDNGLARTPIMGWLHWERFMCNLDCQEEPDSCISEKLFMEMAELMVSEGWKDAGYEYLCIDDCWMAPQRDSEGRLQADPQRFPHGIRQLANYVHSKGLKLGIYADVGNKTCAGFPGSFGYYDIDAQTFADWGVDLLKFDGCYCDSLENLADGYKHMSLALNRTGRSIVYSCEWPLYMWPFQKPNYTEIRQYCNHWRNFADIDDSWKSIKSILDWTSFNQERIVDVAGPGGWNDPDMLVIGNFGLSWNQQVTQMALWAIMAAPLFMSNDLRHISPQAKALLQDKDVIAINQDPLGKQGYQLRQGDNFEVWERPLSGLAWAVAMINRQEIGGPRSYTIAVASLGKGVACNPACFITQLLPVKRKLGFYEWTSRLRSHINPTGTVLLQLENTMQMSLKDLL
Procedure, shortened: (§1)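 T cells expanded from patient or normal blood white cells in RPMI 1640 with serum, about 25 ng/ml IL-2 and PHA at 37° C, 5% CO2. Cultures held between 5×10^5 and 1.5×10^6 cells/ml.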

mutant α-GAL [2] = target: T2, mutant α-GAL (Homo sapiens, UniProt P06280, R49C); experiment: as above; parameters: key to Enhancement Group / Enhancement ratio: E: enhanceable;; I: enhanceable (intermediate);; NE: not enhanceable;; settings: Fabry patient T cells, mutation R49C
T2 construct: endogenous in cells; host or cells: T cell cultures established from blood of Fabry patients
T2 sequence (P06280 32-429 R49C): T1 sequence (P06280 32-429 T41I) with I10T, R18C
Procedure, shortened: as §1

Enhancement Group (mutant α-GAL [1]): E
Activity (% Normal) (+DGJ) (mutant α-GAL [1]; 20 μM DGJ): 147 % Normal and 175 % Normal
Enhancement ratio (mutant α-GAL [1]; +DGJ vs −DGJ): 3.0 and 2.9
Enhancement Group (mutant α-GAL [2]): I
Activity (% Normal) (+DGJ) (mutant α-GAL [2]; 20 μM DGJ): 11 % Normal
Enhancement ratio (mutant α-GAL [2]; +DGJ vs −DGJ): 4.3
Compound: OC[C@H]1NC[C@H](O)[C@@H](O)[C@H]1O [DGJ, 1-deoxygalactonojirimycin]
